# Test results taken from patent publication EP4635958A1, “PYRIMIDINE-CONTAINING POLYCYCLIC DERIVATIVE INHIBITOR, AND PREPARATION METHOD THEREFOR AND USE THEREOF” (Shanghai Hansoh Biomedical Co., Ltd., priority 2022, dated 2024).
# Structures can show the parent of a compound that is named as a salt.
# Columns and labels:
# AsPC-1 = assay: Inhibition of proliferation of KRAS G12D mutant tumor cell line AsPC-1 (CellTiter-Glo); assay type: cell-based
# Method in brief: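 KRAS G12D-mutant AsPC-1 cells plated overnight at 37 °C/5% CO2, then exposed to serial compound dilutions (DMSO/medium, vehicle control) for about 72 h. Viability read by CellTiter-Glo luminescence; inhibition rate vs concentration fitted by nonlinear regression for IC50.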
# [1] = Plasma stability test, mouse plasma; assay type: in vitro ADME; conditions: Mouse plasma, 37°C;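 note: test compound quantified by LC-MS using positive-mode electrospray ionization and MRM scanning, with an internal standard added in acetonitrile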
# Description: (§1) Liquid chromatography-mass spectrometer, centrifuge, vortexer, pipette, continuous dispenser, 96-well plate, 50% methanol aqueous solution, acetonitrile solution containing internal standard, blank matrix (plasma of rat, dog, or human), Propantheline (propantheline bromide), Mevinolin (lovastatin), and test compound.
# (§2) After whole blood was collected from animals or humans, it was placed in a test tube containing an anticoagulant and centrifuged at 3500 rpm for 10 min to collect the upper pale yellow plasma.
# (§3) The compound was weighed and the stock solution was formulated with DMSO and the working solution was formulated with 100 mM phosphate buffer.
# (§4) • Instrument: API4000 liquid chromatography-mass spectrometer, AB Company, USA; • the ion source was electrospray ionization source (ESI); • drying gas (N2) temperature was 500°C; • electrospray voltage was 5500V; • the detection method was positive ion detection; • the scanning method was selected reaction monitoring (MRM); • the scanning time was 0.1s.
# [2] = Plasma stability test, human plasma; assay type: in vitro ADME; conditions: Human plasma, 37°C;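 note: test compound incubated in human plasma, quantified by LC-MS/MS (positive-ion ESI, MRM) against an internal standard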
# Description: as §1, §2, §3, §4
# [3] = Plasma stability test, rat plasma
# Description: The purpose of this experiment was to detect the stability of the example compounds in plasma of mouse, rat, dog and human.
# as §1, §2, §3
# 2.36 mg of propantheline bromide was weighed and diluted with 1 mL of DMSO into a 10 mM stock solution; 10 µL of 10 mM stock solution was pipetted into 1 mL of 100 mM phosphate buffer to achieve a final concentration of 100 µM.
# 4.05 mg of lovastatin was weighed and diluted with 1 mL of DMSO into a 10 mM stock solution; 10 µL of 10 mM stock solution was pipetted into 1 mL of 100 mM phosphate buffer to achieve a final concentration of 100 µM.
# • 1) In a 96-well plate, 285 µL of plasma and 15 µL of 10 µM compound (test compound) were added in sequence and incubated at 37°C. • 2) 40 µL was taken at 0, 15, 30, 60, 90, and 120 min (the sampling point can be fine-tuned) and 160 µL of acetonitrile stop solution containing internal standard was add. • 3) After centrifugation (3500 rpm, 10 min), 50 µL of supernatant was taken, and 50 µL of DDH2O added for dilution and then the obtained mixture was injected into LC-MS/MS.
# • Instruments: Shimadzu LC-20 AD • Chromatographic column: Phenomenex Gemiu ® C18 (50*4.6 mm, 5 µm particle size); • mobile phase: A: Acetonitrile, B: 0.1% formic acid solution 0-8 min: 5% A→95% A, 2.0-2.1 min: 90%A→5% A; Flow rate: 0.8 mL/min; Run time: 5.0 min; Injection volume: 5 µL.
# as §4
# p-ERK in AGS cells = assay: Inhibition of p-ERK in AGS cells (LANCE Ultra phospho-ERK1/2 kit); assay type: cell-based; conditions: Homo sapiens, AGS, 2 h, read-out: AGS_pERK IC50
# Description: 1. Experimental objective: The inhibition activity of the example compounds on the phosphorylated ERK level in KRAS G12D mutant cells AGS was determined. 2. Experimental instruments: • 2.1 Instruments: Envison; Pipette (Eppendorf & Rainin) • 2.2 Reagents: AGS cells were purchased from COBIOER BIOSCIENCES CO., LTD, with a catalog number of CBP60476; Phosphorylated ERK1/2 (T202-Y204) LANCE Ultra Cellular Detection Kit was purchased from PerkinElmer, with a catalog number of TRF4000M; RPMI 1640 was purchased from Gibco, with a catalog number of 22400071; FBS was purchased from Gibco, with a catalog number of 10091148; PBS was purchased from Gibco, with a catalog number of 10010023; trypsin was purchased from Gibco, with a catalog number of 25200056; cell culture plates were purchased from Corning Company, with a catalog number of 3610; White opaque OptiPlate™-384 plates were purchased from PerkinElmer, with a catalog number of 6007290. 3. Experimental method: When AGS cells were cultured to appropriate confluence, the AGS cells were collected, and the cell density was adjusted to 4 × 10^5/mL using complete culture medium. The cell suspension was plated onto a 96-well plate at 100 µL per well, and the plate was placed in the incubator at 37°C and 5% CO2 for adherent culture overnight. Solutions of the compound with different concentrations were formulated using DMSO and complete culture medium, and a vehicle control was set up. The solutions of the compound were added to the 96-well plate at 25 µL per well, and the plate was placed in the incubator at 37°C and 5% CO2 for further culture for 2 h. Then, the supernatant of the cell culture plate was discarded, 50 µL of lysis buffer was added to each well, the cells were lysed at room temperature under shaking for 30 min, then placed in a centrifuge and centrifuged at 1000 rpm for 1 min. 15 µL of supernatant was transferred to a 384-well plate, 5 µL of detection mixture was added to each well (Eu-labeled anti-ERK1/2 (T202-Y204) Antibody at a final detection concentration of 0.5 nM and ULight labeled anti-ERK1/2 Antibody at a final detection concentration of 5 nM), centrifuged at 1000 rpm for 1 min, mixed evenly, and reacted at room temperature overnight. The plate was read using Envison and the signal values at the emission wavelengths of 620 nm and 665 nm were detected using a time-resolved fluorescence program. 4. […] Graphpad Prism software was used to fit the concentration and inhibition rate to a nonlinear regression curve, so as to obtain the IC50 value. Table 5: Inhibition activity of the compounds on p-ERK in AGS cells
# [4] = Homo sapiens, ASPC1, about 72 h
compound,measurement,setting,value
"4-((5S,5aS,6R,9S)-12-((1-((((R)-4-(difluoromethylene)-2-methylpiperidin-1-yl)methyl)cyclopropyl)methoxy)-1-fluoro-5-(methyl-d3)-5a,6,7,8,9,10-hexahydro-5H-4-oxa-3,10a,11,13,14-pentaaza-6,9-methylnaphtho[1,8-ab]hept-2-yl)-5-ethynyl-6-fluoronaphthalen-2-ol [Example 162]",IC50,AsPC-1; about 72 h,4 nM
"C#Cc1c(F)ccc2cc(O)cc(-c3nc4c5c(nc(OCC6(CN7CCC(=C(F)F)CC7)CC6)nc5c3F)N3C[C@H]5CC[C@H](N5)[C@H]3CO4)c12 [Example 1-1, 4-((5aS,6S,9R)-12-((1-((4-(difluoromethylene)piperidin-1-yl)methyl)cyclopropyl)methoxy)-1-fluoro-5a,6,7,8,9,10-hexahydro-5H-4-oxa-3,10a,11,13,14-pentaaza-6,9-methylenenaphtho[1,8-ab]heptalene-2-yl)-5-ethynyl-6-fluoronaphthalen-2-ol]",Remaining rate (%) 0 min,[1]; 0 min,100.00%
same,Remaining rate (%) 15 min,[1]; 15 min,94.74%
same,Remaining rate (%) 30 min,[1]; 30 min,96.27%
same,Remaining rate (%) 60 min,[1]; 60 min,96.21%
same,Remaining rate (%) 120 min,[1]; 120 min,98.50%
same,half-life,[1]; read-out: t1/2 (converted),146 h
same,Remaining rate (%) 0 min,[2]; 0 min,100.00%
same,Remaining rate (%) 15 min,[2]; 15 min,100.68%
same,Remaining rate (%) 30 min,[2]; 30 min,101.72%
same,Remaining rate (%) 60 min,[2]; 60 min,97.62%
same,Remaining rate (%) 120 min,[2]; 120 min,88.35%
same,half-life,[2]; read-out: t1/2 (converted),31.4 h
same,Remaining rate (%) 0 min,"[3]; Rat plasma, 37°C, 0 min",100.00%
same,Remaining rate (%) 15 min,"[3]; Rat plasma, 37°C, 15 min",95.76%
same,Remaining rate (%) 30 min,"[3]; Rat plasma, 37°C, 30 min",92.93%
same,Remaining rate (%) 60 min,"[3]; Rat plasma, 37°C, 60 min",88.38%
same,Remaining rate (%) 120 min,"[3]; Rat plasma, 37°C, 120 min",80.60%
same,half-life,"[3]; rat, plasma",13.5 h
same,IC50,p-ERK in AGS cells,7 nM
"C#Cc1c(F)ccc2cc(O)cc(-c3nc4c5c(nc(OCC6(CN7CCC(=NOC)CC7)CC6)nc5c3F)N3C[C@H]5CC[C@H](N5)[C@H]3[C@H](C)O4)c12 [Example 35-1, 1-((1-((((5S,5aS,6S,9R)-2-(8-ethynyl-7-fluoro-3-hydroxynaphthalen-1-yl)-1-fluoro-5-methyl-5a,6,7,8,9,10-hexahydro-5H-4-oxa-3,10a,11,13,14-pentaaza-6,9-methylenenaphtho[1,8-ab]heptalen-12-yl)oxo)methyl)cyclopropyl)methyl)piperidin-4-one O-methyloxime formate]",IC50,AsPC-1; [4],3.8 nM
same,IC50,p-ERK in AGS cells,2.7 nM
"CON=C1CCN(CC2(COc3nc4c5c(nc(-c6cc(N)cc(Cl)c6C(F)(F)F)c(F)c5n3)O[C@@H](C)[C@@H]3[C@@H]5CC[C@H](CN43)N5)CC2)CC1 [Example 337, 1-((1-((((5S,5aS,6S,9R)-2-(5-amino-3-chloro-2-(trifluoromethyl)phenyl)-1-fluoro-5-methyl-5a,6,7,8,9,10-hexahydro-5H-4-oxa-3,10a,11,13,14-pentaaza-6,9-methylnaphtho[1,8-ab]heptene-12-yl)oxy)methyl)cyclopropyl)methyl)piperidin-4-one O-methyloxime]",IC50,AsPC-1; [4],1.2 nM
same,IC50,p-ERK in AGS cells,4.6 nM
[2H]C([2H])([2H])[C@@H]1Oc2nc(-c3cc(N)cc(Cl)c3C(F)(F)F)c(F)c3nc(OCC4(CN5CCC(=NOC)CC5)CC4)nc(c23)N2C[C@H]3CC[C@H](N3)[C@@H]12 [Example 339],IC50,AsPC-1; [4],3.5 nM
same,IC50,p-ERK in AGS cells,4.4 nM
